{"source": "patent US11083748B2", "about": "(priority 2003, dated 2021)", "origin": "cited, not measured here", "key": {"[1]": {"details": "in vivo, iv"}, "patients": {"test_system": "patients", "details": "human, in vivo"}}}
{"smiles": "O=C(O)CN(CCN(CC(=O)O)CC(=O)O)CC(=O)O", "note": "[EDTA, ethylenediamine tetraacetic acid]", "values": [{"measurement": "fraction of the drug remaining one hour following administration", "setting": "[1]", "result": "one-half"}, {"measurement": "half-life", "setting": "[1]", "result": "20 to 60", "unit": "min"}]}
{"smiles": "O=C(O)C(S)C(S)C(=O)O", "note": "(stereo not shown) [Succimer, dimercaptosuccinic acid]", "values": [{"measurement": "patients with drug-induced elevations of liver transaminases (mild and transient)", "setting": "patients", "result": "up to 10%"}]}
{"smiles": "CC(C)(S)[C@@H](N)C(=O)O", "note": "[Penicillamine, beta,beta-dimethylcysteine]", "values": [{"measurement": "solubility in water", "result": "freely soluble"}]}
